Tests used:
[1] = tested on: MAPK signaling pathways; test: Western blotting of total and phosphorylated p38, JNK, ERK in cortex and hippocampus; assay type: in vivo, mouse; details: PAM 15 mg/kg/day s.c.
Excerpt: Doxycycline (Dox)-inducible and astrocyte-specific HIV-1 Tat-transgenic mice (iTat) were generated as previously described.^38 Wild-type (Wt, C57BL/6) and α7 nAChR knockout mice (α7^−/−, B6.129S7-Chrna^7tm1Ba/J) were purchased from the Jackson Laboratory (Bar Harbor, ME). All the animal procedures were approved by the Institutional Animal Care and Use Committee. Mice were housed with a 12-hour light and 12-hour dark photoperiod and provided water and food ad libitum. α7^−/− iTat mice were generated by cross breeding iTat mice with α7^−/− mice. α7^−/− genotyping was slightly modified with the JumpStart™ Taq DNA Polymerase-based PCR (JumpStart™ Taq DNA Polymerase, Sigma, catalog #D9307). […] Mice of 10-14 weeks old with body weights of 20-35 grams were fed with Dox-containing diet (0.625 g/kg, Envigo, catalog #TD.01306) as stated.
A RIPA buffer (50 mM Tris.HCl, pH 8.0, 280 mM NaCl, 0.5% NP-40, 1% C24H39NaO4, 0.2 mM EDTA, 2 mM EGTA and 10% glycerol) supplemented with protease inhibitors (Millipore-Sigma, catalog #S8830) and phosphatase inhibitors (Millipore-Sigma, catalog #4906845001) was used to lyse the brain tissues and cultured cells with brief sonication on ice. Protein concentrations of the lysates were determined using a Bio-Rad DC protein assay kit (Bio-Rad, catalog #5000111). Lysates were denatured in the SDS-PAGE loading buffer at 100° C. for 10 min, then electrophoretically separated by 8-15% SDS-PAGE, blotted onto 0.45 μm polyvinylidene fluoride membrane (GE Healthcare Life Sciences, catalog #10600023), and probed using appropriate antibodies against PSD-95 (Abcam, catalog #ab18258, and 1:2000 dilution), SYP (Abcam, catalog #ab8049, and 1:1000 dilution), Iba-1 (Wako, catalog #016-20001, and 1:500 dilution) and GFAP (DAKO, catalog #z330s, and 1:2000 dilution), p-p38 (Santa Cruz, catalog #sc-166182, and 1:1000 dilution), p38 (Santa cruz, catalog #sc-535, and 1:1000 dilution), p-JNK (Santa cruz, catalog #sc-6254, and 1:1000 dilution), JNK (Santa cruz, catalog #sc-571, and 1:1000 dilution), p-ERK (Santa cruz, catalog #sc-7383, and 1:1000 dilution), and ERK (Santa cruz, catalog #sc-514302, and 1:1000 dilution), α7 nAChR (Alomone, catalog #ANC-007, and 1:1000 dilution) and β-actin (Sigma-Aldrich, catalog #A1978, and 1:2000 dilution). A Bio-Rad ChemicDoc imaging system (Bio-Rad) and Image J were used for image capturing and analysis, respectively.
It was next determined which MAPK signaling pathways were responsive to PAM neuroprotective effects against Tat-induced neuropathologies. Both CORT and HIP were analyzed for expression and phosphorylation of p38, JNK, and ERK.

[2] = tested on: microglia in CORT of Wt and iTat mice; test: Iba-1 immunohistochemistry (DAB), microglia morphology in CORT; assay type: in vivo, mouse; details: PAM-treated iTat mice
Description: Mice were anesthetized using avertin (tribromoethanol) and transcardially perfused with first phosphate-buffered saline (PBS) and then 4% paraformaldehyde (PFA). Then, the brains were dissected out, fixed in 4% PFA at 4° C. overnight, dehydrated in 30% sucrose, embedded in OCT, sagittally sectioned (20 μm) using a cryostat, and preserved in a cryoprotectant containing 30% ethylene glycol, 30% glycerol, and 40% PBS. For staining, floating sections were permeabilized in 0.1% triton X-100 in PBS (PBST), blocked by 1% BSA in PBST, probed by Iba-1 antibody (Wako, catalog #019-19741, and 1:800 dilution), inactivated endogenous peroxidases in 1% hydrogen peroxide, probed again by a goat anti-rabbit secondary antibody (Southern Biotech, catalog #4030-05, and 1:200 dilution), and developed using a DAB kit (Abeam, catalog #ab103723). All images were taken using a Nikon Eclipse E800 microscope with a 20× objective and analyzed by the Cellprofiler program. Every section was averaged from three brain regions prefrontal, occipital and parietal cortex, and the average of the three sections was used to represent individual animals.
To further determine the relationship between microglia activation, Tat neurotoxicity, and PAM/α7 nAChR, immunohistochemistry staining was performed on microglia in CORT of Wt and iTat mice treated with and without PAM (FIG. 1). […]

COc1cc(OC)c(NC(=O)Nc2cc(C)on2)cc1Cl [PAM, 1-(5-chloro-2,4-dimethoxy-phenyl)-3-(5-methyl-isoxazol-3-yl)-urea]
p38 and p-p38α ([1]; CORT and HIP): increases of both p38 and p-p38α in both CORT and HIP
p-ERK ([1]; CORT and HIP, iTat and Wt mice): no differences of p-ERK in CORT and HIP of both iTat and Wt mice
JNK ([1]; CORT, Wt and iTat mice): increases of JNK in CORT of Wt mice, increases of JNK in CORT of iTat mice
p-JNK ([1]; CORT, all mice): no differences of p-JNK in CORT of all mice
JNK and p-JNK ([1]; HIP, all mice): increases of JNK and p-JNK in HIP of all mice
ERK ([1]; HIP, iTat mice): decreases of ERK in HIP of iTat mice
Number of microglia branches and endpoints [2]: fewer branches and endpoints than PAM-treated Wt mice and DMSO-treated iTat mice

— patent publication US11786507B2, “Methods of treating HIV-associated neurological disorders (HAND)” (priority 2020, dated 2023)
